# Reference: the supplement of paper PMC10307832
# Key:
# Assay in all cases: relative viability (nuclei count vs DMSO), 5 days (fraction); higher = more cells survive
# HCC-78 = test system: HCC-78
# Method in brief: (§1)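 Lung cancer cell lines in 1536-well plates got either a single drug or a fixed anchor-drug dose together with five library-drug doses (not always all listed) in √10 steps, by pin tool, on the day after seeding. Nuclei were counted after 5 days, and relative viability is the treated-to-vehicle ratio of nuclei counts. Values are medians of duplicate plates.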
# NCI-H1648 = test system: NCI-H1648
# Method in brief: as §1
# NCI-H2009 = test system: NCI-H2009
# Method in brief: as §1
# NCI-H2342 = test system: NCI-H2342
# Method in brief: as §1
# NCI-H358 = test system: NCI-H358
# Method in brief: as §1
# NCI-H460 = test system: NCI-H460
# Method in brief: as §1
# NCI-H522 = test system: NCI-H522
# Method in brief: as §1
# NCI-H661 = test system: NCI-H661
# Method in brief: as §1
# A549 = test system: A549
# Method in brief: as §1
# Calu-6 = test system: Calu-6
# Method in brief: as §1
# EBC-1 = test system: EBC-1
# Method in brief: as §1
# IA-LM = test system: IA-LM
# Method in brief: as §1
# NCI-H1299 = test system: NCI-H1299
# Method in brief: as §1
# NCI-H1703 = test system: NCI-H1703
# Method in brief: as §1
smiles,measurement,setting,value
Nc1ccn([C@@H]2O[C@H](CO)[C@@H](O)[C@@H]2O)c(=O)n1 [Cytarabine] + Nc1nc2[nH]cc(CCc3ccc(C(=O)N[C@@H](CCC(=O)O)C(=O)O)cc3)c2c(=O)[nH]1 [Pemetrexed] (partner 0.2 µM),relative viability,HCC-78; first compound 0.005 µM,0.824
same,relative viability,HCC-78; first compound 0.01581 µM,0.918
same,relative viability,HCC-78; first compound 0.05 µM,0.889
same,relative viability,HCC-78; first compound 0.1581 µM,0.936
same,relative viability,HCC-78; first compound 0.5 µM,0.894
same,relative viability,NCI-H1648; first compound 0.005 µM,0.563
same,relative viability,NCI-H1648; first compound 0.01581 µM,0.733
same,relative viability,NCI-H1648; first compound 0.05 µM,0.838
same,relative viability,NCI-H1648; first compound 0.1581 µM,0.653
same,relative viability,NCI-H1648; first compound 0.5 µM,0.515
same,relative viability,NCI-H2009; first compound 0.005 µM,0.971
same,relative viability,NCI-H2009; first compound 0.01581 µM,0.99
same,relative viability,NCI-H2009; first compound 0.05 µM,0.996
same,relative viability,NCI-H2009; first compound 0.1581 µM,0.827
same,relative viability,NCI-H2009; first compound 0.5 µM,0.258
same,relative viability,NCI-H2342; first compound 0.005 µM,0.667
same,relative viability,NCI-H2342; first compound 0.01581 µM,0.707
same,relative viability,NCI-H2342; first compound 0.05 µM,0.638
same,relative viability,NCI-H2342; first compound 0.1581 µM,0.504
same,relative viability,NCI-H2342; first compound 0.5 µM,0.353
same,relative viability,NCI-H358; first compound 0.005 µM,0.195
same,relative viability,NCI-H358; first compound 0.01581 µM,0.188
same,relative viability,NCI-H358; first compound 0.05 µM,0.185
same,relative viability,NCI-H358; first compound 0.1581 µM,0.168
same,relative viability,NCI-H358; first compound 0.5 µM,0.116
same,relative viability,NCI-H460; first compound 0.005 µM,0.0718
same,relative viability,NCI-H460; first compound 0.01581 µM,0.0671
same,relative viability,NCI-H460; first compound 0.05 µM,0.0853
same,relative viability,NCI-H460; first compound 0.1581 µM,0.0459
same,relative viability,NCI-H460; first compound 0.5 µM,0.037
same,relative viability,NCI-H522; first compound 0.005 µM,0.942
same,relative viability,NCI-H522; first compound 0.01581 µM,0.846
same,relative viability,NCI-H522; first compound 0.05 µM,0.631
same,relative viability,NCI-H522; first compound 0.1581 µM,0.578
same,relative viability,NCI-H522; first compound 0.5 µM,0.455
same,relative viability,NCI-H661; first compound 0.005 µM,0.94
same,relative viability,NCI-H661; first compound 0.01581 µM,0.849
same,relative viability,NCI-H661; first compound 0.05 µM,0.851
same,relative viability,NCI-H661; first compound 0.1581 µM,0.609
same,relative viability,NCI-H661; first compound 0.5 µM,0.373
Cc1sc2c(c1C)C(c1ccc(Cl)cc1)=N[C@@H](CC(=O)OC(C)(C)C)c1nnc(C)n1-2 [JQ1] + C[C@@H](Oc1cc(-c2cnn(C3CCNCC3)c2)cnc1N)c1c(Cl)ccc(F)c1Cl [Crizotinib] (partner 1 µM),relative viability,A549; first compound 0.04 µM,0.766
same,relative viability,A549; first compound 0.1265 µM,0.521
same,relative viability,A549; first compound 0.4 µM,0.558
same,relative viability,A549; first compound 1.265 µM,0.233
same,relative viability,A549; first compound 4 µM,0.125
same,relative viability,Calu-6; first compound 0.04 µM,0.737
same,relative viability,Calu-6; first compound 0.1265 µM,0.546
same,relative viability,Calu-6; first compound 0.4 µM,0.62
same,relative viability,Calu-6; first compound 1.265 µM,0.342
same,relative viability,Calu-6; first compound 4 µM,0.183
same,relative viability,EBC-1; first compound 0.04 µM,0.214
same,relative viability,EBC-1; first compound 0.1265 µM,0.187
same,relative viability,EBC-1; first compound 0.4 µM,0.154
same,relative viability,EBC-1; first compound 1.265 µM,0.105
same,relative viability,EBC-1; first compound 4 µM,0.13
same,relative viability,HCC-78; first compound 0.04 µM,0.314
same,relative viability,HCC-78; first compound 0.1265 µM,0.33
same,relative viability,HCC-78; first compound 0.4 µM,0.348
same,relative viability,HCC-78; first compound 1.265 µM,0.275
same,relative viability,HCC-78; first compound 4 µM,0.251
same,relative viability,IA-LM; first compound 0.04 µM,0.672
same,relative viability,IA-LM; first compound 0.1265 µM,0.3
same,relative viability,IA-LM; first compound 0.4 µM,0.147
same,relative viability,IA-LM; first compound 1.265 µM,0.101
same,relative viability,IA-LM; first compound 4 µM,0.108
same,relative viability,NCI-H1299; first compound 0.04 µM,0.932
same,relative viability,NCI-H1299; first compound 0.1265 µM,0.768
same,relative viability,NCI-H1299; first compound 0.4 µM,0.707
same,relative viability,NCI-H1299; first compound 1.265 µM,0.352
same,relative viability,NCI-H1299; first compound 4 µM,0.279
same,relative viability,NCI-H1703; first compound 0.04 µM,0.611
same,relative viability,NCI-H1703; first compound 0.1265 µM,0.438
same,relative viability,NCI-H1703; first compound 0.4 µM,0.464
same,relative viability,NCI-H1703; first compound 1.265 µM,0.286
same,relative viability,NCI-H1703; first compound 4 µM,0.302
same,relative viability,NCI-H2009; first compound 0.04 µM,0.969
same,relative viability,NCI-H2009; first compound 0.1265 µM,0.627
same,relative viability,NCI-H2009; first compound 0.4 µM,0.572
same,relative viability,NCI-H2009; first compound 1.265 µM,0.301
same,relative viability,NCI-H2009; first compound 4 µM,0.211
same,relative viability,NCI-H358; first compound 0.04 µM,0.498
same,relative viability,NCI-H358; first compound 0.1265 µM,0.43
same,relative viability,NCI-H358; first compound 0.4 µM,0.473
same,relative viability,NCI-H358; first compound 1.265 µM,0.228
same,relative viability,NCI-H358; first compound 4 µM,0.25
same,relative viability,NCI-H460; first compound 0.04 µM,0.806
same,relative viability,NCI-H460; first compound 0.1265 µM,0.597
same,relative viability,NCI-H460; first compound 0.4 µM,0.532
same,relative viability,NCI-H460; first compound 1.265 µM,0.0339
same,relative viability,NCI-H460; first compound 4 µM,0.0299
same,relative viability,NCI-H661; first compound 0.04 µM,1
same,relative viability,NCI-H661; first compound 0.1265 µM,1.08
same,relative viability,NCI-H661; first compound 1.265 µM,1.05
same,relative viability,NCI-H661; first compound 4 µM,0.776
Nc1ccn([C@@H]2O[C@H](CO)[C@@H](O)[C@@H]2O)c(=O)n1 [Cytarabine] + C[C@@H](Oc1cc(-c2cnn(C3CCNCC3)c2)cnc1N)c1c(Cl)ccc(F)c1Cl [Crizotinib] (partner 1 µM),relative viability,A549; first compound 0.005 µM,0.541
same,relative viability,A549; first compound 0.01581 µM,0.53
same,relative viability,A549; first compound 0.05 µM,0.449
same,relative viability,A549; first compound 0.1581 µM,0.0819
same,relative viability,A549; first compound 0.5 µM,0.0747
same,relative viability,Calu-6; first compound 0.005 µM,0.722
same,relative viability,Calu-6; first compound 0.01581 µM,0.706
same,relative viability,Calu-6; first compound 0.05 µM,0.623
same,relative viability,Calu-6; first compound 0.1581 µM,0.433
same,relative viability,Calu-6; first compound 0.5 µM,0.259
same,relative viability,EBC-1; first compound 0.01581 µM,0.171
same,relative viability,EBC-1; first compound 0.05 µM,0.178
same,relative viability,EBC-1; first compound 0.1581 µM,0.149
same,relative viability,EBC-1; first compound 0.5 µM,0.159
same,relative viability,HCC-78; first compound 0.005 µM,0.369
same,relative viability,HCC-78; first compound 0.01581 µM,0.302
same,relative viability,HCC-78; first compound 0.05 µM,0.282
same,relative viability,HCC-78; first compound 0.1581 µM,0.26
same,relative viability,HCC-78; first compound 0.5 µM,0.2
same,relative viability,IA-LM; first compound 0.005 µM,0.864
same,relative viability,IA-LM; first compound 0.01581 µM,0.62
same,relative viability,IA-LM; first compound 0.05 µM,0.729
same,relative viability,IA-LM; first compound 0.1581 µM,0.414
same,relative viability,IA-LM; first compound 0.5 µM,0.121
same,relative viability,NCI-H1299; first compound 0.005 µM,0.956
same,relative viability,NCI-H1299; first compound 0.01581 µM,0.99
same,relative viability,NCI-H1299; first compound 0.05 µM,1.03
same,relative viability,NCI-H1299; first compound 0.1581 µM,0.961
same,relative viability,NCI-H1299; first compound 0.5 µM,0.943
same,relative viability,NCI-H1703; first compound 0.005 µM,0.484
same,relative viability,NCI-H1703; first compound 0.01581 µM,0.375
same,relative viability,NCI-H1703; first compound 0.05 µM,0.299
same,relative viability,NCI-H1703; first compound 0.1581 µM,0.148
same,relative viability,NCI-H1703; first compound 0.5 µM,0.205
same,relative viability,NCI-H2009; first compound 0.005 µM,1.02
same,relative viability,NCI-H2009; first compound 0.01581 µM,1.01
same,relative viability,NCI-H2009; first compound 0.05 µM,0.955
same,relative viability,NCI-H2009; first compound 0.1581 µM,0.884
same,relative viability,NCI-H2009; first compound 0.5 µM,0.298
same,relative viability,NCI-H358; first compound 0.005 µM,0.488
same,relative viability,NCI-H358; first compound 0.01581 µM,0.5
same,relative viability,NCI-H358; first compound 0.05 µM,0.352
same,relative viability,NCI-H358; first compound 0.1581 µM,0.319
same,relative viability,NCI-H358; first compound 0.5 µM,0.231
same,relative viability,NCI-H460; first compound 0.005 µM,0.77
same,relative viability,NCI-H460; first compound 0.01581 µM,0.851
same,relative viability,NCI-H460; first compound 0.05 µM,0.144
same,relative viability,NCI-H460; first compound 0.1581 µM,0.0229
same,relative viability,NCI-H460; first compound 0.5 µM,0.0238
same,relative viability,NCI-H661; first compound 0.005 µM,0.963
same,relative viability,NCI-H661; first compound 0.01581 µM,1.15
same,relative viability,NCI-H661; first compound 0.1581 µM,0.975
same,relative viability,NCI-H661; first compound 0.5 µM,0.632
